{"source": "patent US20190091339A1", "about": "“ABIRATERONE-CYCLIC OLIGOMER PHARMACEUTICAL FORMULATIONS AND METHODS OF FORMATION AND ADMINISTRATION THEREOF” (DISPERSOL TECHNOLOGIES, LLC, priority 2017, published 2019)", "key": {"[1]": {"test_system": "prostate specific antigen (PSA)", "details": "1,000 mg abiraterone acetate daily, well controlled trials; cited from earlier work"}, "[2]": {"test_system": "22RV1 human prostate tumor xenograft", "experiment": "Anti-tumor study in 22RV1 xenograft mice", "type": "in vivo, CB.17 SCID mice", "details": "for Tumor Volume Day 26, individual mice: QD to End, Oral Gavage; for % T/C (mean tumor volume) / % T/C (median tumor volume) / Mean Tumor Volume / Median Tumor Volume: Day 26", "experimental": "The objective of the xenograft mice study was to determine the anti-tumor activity of a composition made per Example 2.4 as a single agent versus abiraterone acetate in the 22RV1 human prostate tumor xenograft model. The study was conducted in CB.17 SCID mice injected with 22RV1 cells (5×10^6 cells/mouse) in the subcutaneous right flank. Tumors were grown to a mean tumor size between 100 and 150 mm^3 prior to study enrollment. The mice were dosed with the test article and reference once-daily by oral gavage per Table 12. Tumor volume was measured throughout the study. The study was terminated on day 26 when mean tumor volume of two experimental groups reached ≥1500 mm^3."}, "[3]": {"details": "Abiraterone Acetate 22.4 mg/kg QD PO"}, "[4]": {"details": "Abiraterone Acetate 100 mg/kg QD PO"}}, "note": "Where “and” joins values, the source holds several entries; their conditions need not be identical. Equal entries are not always repeated."}
{"smiles": "CC(=O)O[C@H]1CC[C@@]2(C)C(=CC[C@@H]3[C@@H]2CC[C@]2(C)C(c4cccnc4)=CC[C@@H]32)C1", "note": "[Abiraterone Acetate, (3β)-17(3-pyridinyl)androsta-5,16-dien-3-ol acetate]", "values": [{"measurement": "treated patients achieving target PSA reductions", "setting": "[1]", "result": "up to 60%"}, {"measurement": "Tumor Volume Day 26, individual mice", "setting": "[2]; Abiraterone Acetate Dose #1, 22.4 mg/kg", "result": "1,062 mm^3 and 1,389 mm^3 and 808 mm^3 and 1,555 mm^3 and 2,107 mm^3 and 726 mm^3 and 1,606 mm^3 and 1,119 mm^3 and 1,127 mm^3 and 1,143 mm^3"}, {"measurement": "Tumor Volume Day 26, individual mice", "setting": "[2]; Abiraterone Acetate Dose #2, 100 mg/kg", "result": "1,609 mm^3 and 1,639 mm^3 and 1,084 mm^3 and 1,490 mm^3 and 1,429 mm^3 and 1,453 mm^3 and 1,152 mm^3 and 1,568 mm^3 and 1,287 mm^3 and 2,787 mm^3"}, {"measurement": "% T/C (mean tumor volume)", "setting": "[2]; [3]", "result": 84.1, "unit": "%"}, {"measurement": "% T/C (median tumor volume)", "setting": "[2]; [3]", "result": 72.8, "unit": "%"}, {"measurement": "Mean Tumor Volume", "setting": "[2]; [3]", "result": 1264.2, "unit": "mm^3"}, {"measurement": "Median Tumor Volume", "setting": "[2]; [3]", "result": 1135.0, "unit": "mm^3"}, {"measurement": "% T/C (mean tumor volume)", "setting": "[2]; [4]", "result": 103.1, "unit": "%"}, {"measurement": "% T/C (median tumor volume)", "setting": "[2]; [4]", "result": 94.4, "unit": "%"}, {"measurement": "Mean Tumor Volume", "setting": "[2]; [4]", "result": 1549.4, "unit": "mm^3"}, {"measurement": "Median Tumor Volume", "setting": "[2]; [4]", "result": 1471.5, "unit": "mm^3"}, {"measurement": "tumor growth relative to vehicle control", "setting": "[2]; once-daily oral gavage, low and high doses, 22RV1 xenograft mice", "result": "did not result in statistically different tumor growth"}]}
